Assay results reported in patent publication US20090099167A1, “Organic compounds” (Novartis Institutes for Biomedical Research, priority 2004, published 2009).
pIC50: −log10 of the molar value.

Columns and labels:
[1] = target: T1, c-Abl kinase (Homo sapiens, UniProt P00519); experiment: c-Abl protein-tyrosine kinase filter binding assay; format: biochemical; details: Table 5; read-out: C-abl, IC50 class
T1 construct: The His-tagged kinase domain of c-Abl is cloned and expressed in the baculovirus/Sf9 system; His; made in house; host or cells: Sf9 (baculovirus)
T1 sequence (P00519 242-493 limits assumed): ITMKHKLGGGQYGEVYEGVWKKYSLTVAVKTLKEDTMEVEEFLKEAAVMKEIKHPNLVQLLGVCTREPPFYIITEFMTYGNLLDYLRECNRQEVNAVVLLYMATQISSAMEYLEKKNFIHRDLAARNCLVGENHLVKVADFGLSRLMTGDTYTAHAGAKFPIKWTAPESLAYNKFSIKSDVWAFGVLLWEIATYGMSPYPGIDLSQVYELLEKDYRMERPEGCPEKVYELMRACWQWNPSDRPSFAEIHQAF
Method in brief: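 His-tagged c-Abl kinase domain (37 kD, Sf9-expressed) with 30 μg/mL poly-AEKY and [γ-33P]-ATP (5 μM ATP) in 20 mM Tris.HCl pH 7.5, 10 mM MgCl2, 10 μM Na3VO4, 1 mM DTT, 1% DMSO. EDTA-stopped reactions captured on PVDF membranes, washed with 0.5% H3PO4, and scintillation-counted.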

[2] = target: T2, human IGF-IR (Homo sapiens, UniProt P08069); experiment: IGF-1R tyrosine kinase assay, GST-IGF-1R; format: biochemical; details: Table 5; read-out: IGF-1R, IC50 class
T2 construct: expresses the amino acid region 950-1337 of the mature peptide cytoplasmic domain of the human IGF-IR; made in house; host or cells: baculovirus (Bac-to-Bac)
Text: The inhibition of IGF-1R and Ins-R can be determined as follows: The baculovirus donor vector pfbgx3IGFIRcd is used to generate a recombinant baculovirus that expresses the amino acid region 950-1337 of the mature peptide cytoplasmic domain of the human IGF-IR. To generate the cDNA fragment encoding the amino acid region 919-1343 of the intra-cytoplasmic kinase domain of the human insulin receptor, pC5hInsR is used. The fragments of the human IGF-IR and Ins-R are cloned, expressed and small-scale purified as a factor Xa-cleavable glutathione-S-transferase (GST)-fusion protein using the Bac-to-Bac™ system (GIBCO BRL) of recombinant baculovirus generation. Virus containing media is collected from the transfected cell culture and used for infection to increase its titer. Virus containing media obtained after two rounds of infection is used for large-scale protein expression. Cell extracts are prepared and loaded onto a glutathione-Sepharose (Pharmacia) column. After washing, the GST-tagged proteins are then eluted with a glutathione-containing buffer. Purified protein is stored at −70° C. in elution buffer. Tyrosine protein kinase assays with purified GST-IGF-1R and GST-ins-R are carried in a final volume of 30 μl containing 20 mM Tris-HCl, pH 7.6, 10 mM MgCl2, 0.01 mM Na3VO4, 1% DMSO, 1 mM DTT, 3 μg/ml poly(Glu,Tyr) 4:1 and 10 μM ATP (γ-[^33P]-ATP 0.1 μCi). The assay is performed in 96-well plates at ambient temperature for 20 min and terminated by addition of 25 μl 0.05 M EDTA pH 7.0. An aliquot of 40 μl is spotted with a multichannel dispenser on Whatman P81 membranes mounted in a Millipore Microtiter filter manifold connected to a low vacuum source. After elimination of liquid, the membrane is transferred to a sequence of 4 washing baths containing 0.5% H3PO4 and one with EtOH (shaking incubation for 10 min each), dried, mounted onto a Hewlett Packard TopCount manifold added 10 μl Microscint® and counted. Compounds of formula (I) show up to 90% inhibition of Ins-R at 10,000 nM, preferably between 60-90% inhibition. The inhibition of Tek can be determined as follows: The procedure of the expression, purification and assay these kinases has been described. Fabbro et al., Pharmacol. Ther. 82(2-3) 293-301 (1999). In brief, the glutathione S-transferase (GST) gene from the pAcG1 vector (Pharmingen) is excised with EcoRV and EcoRI and inserted into the cloning site of the Fast-Bac baculoviral vector (GIBCO) creating a 5530 bp vector with N-terminal cloning sites derived from the pAcG1 fusion vector (FBG0). The C-terminal cloning site may be any cloning site (from the Fast-Bac vector) downstream of the N-terminal cloning site used. N-terminally GST-fused (pAcG1, Pharmingen) KDR, Flt-1, Flk-1, Tek and PDGFR-β kinase domains are obtained from ProQinase, Freiburg, Germany. Tek is recloned into the FBG1 vector by EcoRI excision and ligation into EcoRI digested FBG1 (FBG1-Tek). The coding sequences for the whole cytoplasmic domain of c-Kit (aa 544-976) and c-Fms (aa 538-972) are amplified by PCR from human uterus and from human bone marrow cDNA libraries (Clontech), respectively. The amplified DNA fragments are fused to GST by cloning them into FBG1 as BamHI-EcoRI insertions, to yield FBG1-c-Kit and FBG1-c-Fms. Tek is recloned into the FBG0 transfer vector by EcoRI excision and ligation into EcoRI digested FBG0 (FBG-Tie2/Tek). FGFR-1 and c-met kinase domains are obtained by PCR from human A431 cells. N-terminal primers contain an overhanging EcoRI site, while C-terminal primers contain a XhoI site to aid cloning into the transfer vectors. After digestion of both the PCR fragments and FBG0 the cleavage products are gel-purified and ligated together to form the kinase constructs (FBG-Met, FBG-FGFR-1).

T2 sequence (P08069 980-1367): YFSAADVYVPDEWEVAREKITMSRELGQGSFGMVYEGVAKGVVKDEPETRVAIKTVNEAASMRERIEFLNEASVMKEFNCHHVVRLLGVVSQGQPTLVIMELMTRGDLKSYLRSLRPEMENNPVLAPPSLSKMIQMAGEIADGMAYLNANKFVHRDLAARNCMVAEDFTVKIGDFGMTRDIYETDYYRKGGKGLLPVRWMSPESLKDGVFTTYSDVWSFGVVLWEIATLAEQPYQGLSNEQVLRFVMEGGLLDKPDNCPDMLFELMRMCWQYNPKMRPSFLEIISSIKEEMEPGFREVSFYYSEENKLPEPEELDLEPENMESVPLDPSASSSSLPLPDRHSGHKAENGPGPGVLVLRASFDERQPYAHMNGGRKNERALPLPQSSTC

| pIC50 [1] | pIC50 [2] | melting point [°C] | Structure (SMILES) |
| --- | --- | --- | --- |
| > 6.00 | < 5.00 | 170 to 171 | CN1CCN(c2cccc(-c3cnn4c(N)c(Cc5cccc(Br)c5)cnc34)c2)CC1 [Example 85, 6-(3-Bromo-benzyl)-3-[3-(4-methyl-piperazin-1-yl)-phenyl]pyrazolo[1,5-a]pyrimidin-7-ylamine] |
| > 6.00 | < 5.00 | 195.3 to 197.2 | CN1CCN(c2cccc(-c3cnn4c(N)c(-c5cccc(Br)c5)cnc34)c2)CC1 [Example 86, 6-(3-Bromo-phenyl)-3-[3-(4-methyl-piperazin-1-yl)-phenyl]-pyrazolo[1,5-a]pyrimidin-7-ylamine] |
| > 6.00 | < 5.00 | 165 to 167 | Cc1nc2c(-c3cccc(N4CCOCC4)c3)cnn2c(N)c1-c1cccc(Cl)c1 [Example 87, 6-(3-Chloro-phenyl)-5-methyl-3-(3-morpholin-4-yl-phenyl)-pyrazolo[1,5-a]pyrimidin-7-ylamine] |
| > 6.00 | < 5.00 | 171 to 172 | COc1ccc(-c2cnn3c(N)c(-c4cccc(Cl)c4)c(C)nc23)cc1 [Example 88, 6-(3-Chloro-phenyl)-3-(4-methoxy-phenyl)-5-methyl-pyrazolo[1,5-a]pyrimidin-7-ylamine] |
| > 6.00 | < 5.00 | 108 to 116 | Cc1nc2c(-c3cccc(N4CCN(CCO)CC4)c3)cnn2c(N)c1-c1cccc(Cl)c1 [Example 90, 2-(4-{3-[7-Amino-6-(3-chloro-phenyl)-5-methyl-pyrazolo[1,5-a]pyrimidin-3-yl]-phenyl}-piperazin-1-yl)-ethanol] |
| > 6.00 | < 5.00 | 72 to 75 | CN1CCN(c2cccc(-c3cnn4c(N)c(Cc5ccccc5)cnc34)c2)CC1 [Example 91, 6-Benzyl-3-[3-(4-methyl-piperazin-1-yl)-phenyl]-pyrazolo[1,5-a]pyrimidin-7-ylamine] |
| < 5.00 | < 5.00 | 235 to 238 | COc1ccc(-c2cnn3c(N)c(-c4ccc(F)c(Cl)c4)c(C)nc23)cc1OC [Example 94, 6-(3-Chloro-4-fluoro-phenyl)-3-(3,4-dimethoxy-phenyl)-5-methyl-pyrazolo[1,5-a]pyrimidin-7-ylamine] |
| > 6.00 | < 5.00 | 188 to 193 | Cc1nc2c(-c3cccc(N4CCC(N5CCCC5)CC4)c3)cnn2c(N)c1-c1cccc(Cl)c1 [Example 102, 6-(3-Chloro-phenyl)-5-methyl-3-[3-(4-pyrrolidin-1-yl-piperidin-1-yl)-phenyl]-pyrazolo[1,5-a]pyrimidin-7-ylamine] |

Second part, the compound before the results:

| Structure (SMILES) | pIC50 [1] | pIC50 [2] | melting point [°C] |
| --- | --- | --- | --- |
| Cc1nc2c(-c3cccc(N4CCN(C)CC4)c3)cnn2c(N)c1-c1cccc(Br)c1 [Example 84, 6-(3-Bromo-phenyl)-5-methyl-3-[3-(4-methyl-piperazin-1-yl)-phenyl]-pyrazolo[1,5-a]pyrimidin-7-ylamine] | > 6.00 | < 5.00 | 107 to 113 |
| Cc1nc2c(-c3cccc(N4C[C@@H](C)O[C@@H](C)C4)c3)cnn2c(N)c1-c1cccc(Cl)c1 [Example 89, 6-(3-Chloro-phenyl)-3-[3-((2R,6S)-2,6-dimethyl-morpholin-4-yl)-phenyl]-5-methyl-pyrazolo[1,5-a]pyrimidin-7-ylamine] | > 6.00 | < 5.00 | 165 to 167 |
| COc1ccc(-c2cnn3c(N)c(-c4cccc(Cl)c4)c(C)nc23)cc1OC [Example 93, 6-(3-Chloro-phenyl)-3-(3,4-dimethoxy-phenyl)-5-methyl-pyrazolo[1,5-a]pyrimidin-7-ylamine] | > 6.00 | < 5.00 | 223 to 226 |
| COc1ccc(-c2cnn3c(N)c(-c4ccc(F)c(Cl)c4)c(C)nc23)cc1 [Example 95, 6-(3-Chloro-4-fluoro-phenyl)-3-(4-methoxy-phenyl)-5-methyl-pyrazolo[1,5-a]pyrimidin-7-ylamine] | > 6.00 | < 5.00 | 224 to 227 |
| COc1ccc(-c2cnn3c(N)c(-c4ccc(F)cc4)c(C)nc23)cc1 [Example 96, 6-(4-Fluoro-phenyl)-3-(4-methoxy-phenyl)-5-methyl-pyrazolo[1,5-a]pyrimidin-7-ylamine] | > 6.00 | < 5.00 | 243 to 244 |
| Cc1nc2c(-c3cccc(N4CCN(CCO)CC4)c3)cnn2c(N)c1-c1ccc(F)cc1 [Example 97, 2-(4-{3-[7-Amino-6-(4-fluoro-phenyl)-5-methyl-pyrazolo[1,5-a]pyrimidin-3-yl]-phenyl}-piperazin-1-yl)-ethanol] | > 6.00 | < 5.00 | 209 to 212 |
| Cc1nc2c(-c3cccc(N4CCN(C)CC4)c3)cnn2c(N)c1-c1ccc(F)c(F)c1 [Example 98, 6-(3,4-Difluoro-phenyl)-5-methyl-3-[3-(4-methyl-piperazin-1-yl)-phenyl]-pyrazolo[1,5-a]pyrimidin-7-ylamine] | > 6.00 | < 5.00 | 216 to 219 |
| COc1ccc(-c2cnn3c(N)c(-c4ccc(F)c(F)c4)c(C)nc23)cc1OC [Example 99, 6-(3,4-Difluoro-phenyl)-3-(3,4-dimethoxy-phenyl)-5-methyl-pyrazolo[1,5-a]pyrimidin-7-ylamine] | > 6.00 | < 5.00 | 230 to 235 |
| Cc1nc2c(-c3cccc(N4CCN(CCO)CC4)c3)cnn2c(N)c1-c1ccc(F)c(Cl)c1 [Example 100, 2-(4-{3-[7-Amino-6-(3-chloro-4-fluoro-phenyl)-5-methyl-pyrazolo[1,5-a]pyrimidin-3-yl]-phenyl}-piperazin-1-yl)-ethanol] | > 6.00 | < 5.00 | 104 to 107 |
| Cc1nc2c(-c3cccc(N4CCN(CCO)CC4)c3)cnn2c(N)c1-c1ccc(F)c(F)c1 [Example 101, 2-(4-{3-[7-Amino-6-(3,4-difluoro-phenyl)-5-methyl-pyrazolo[1,5-a]pyrimidin-3-yl]-phenyl}-piperazin-1-yl)-ethanol] | > 6.00 | < 5.00 | 172 to 174 |
| Cc1nc2c(-c3cccc(N4CCC(N5CCCC5)CC4)c3)cnn2c(N)c1-c1ccc(F)cc1 [Example 103, 6-(4-Fluoro-phenyl)-5-methyl-3-[3-(4-pyrrolidin-1-yl-piperidin-1-yl)-phenyl]-pyrazolo[1,5-a]pyrimidin-7-ylamine] | > 6.00 | < 5.00 | 244 to 249 |
